“And” between values parts separate entries of the source, which are not always exact repeats. Equal entries are not always repeated. “Also recorded” adds a separate entry of the source. Where two headings read alike, the source gives them in different places.
Assays:
[1] = system: parainfluenza virus type 3 (PIV3); format: in vivo, cotton rats (Sigmodon hispidus)
Description: (§1) Inbred cotton rats (Sigmodon hispidus) were obtained from the colony of Virion Systems, Inc. Adult animals, free from specific rodent pathogens, were used. Animals were housed in large polycarbonate rat cages with a bedding of hardwood chips, and fed a diet of standard rat chow and water. Adult animals ranging from 1 to 8 months of age were used. No age-related differences in response to infection or treatment were seen.
(§2) Hydrocortisone acetate was selected as the prototypical corticosteroid for the anti-inflammatory studies. Cotton rats were infected (Day 0) by intranasal instillation of PIV3 (10^6 pfu/animal) or Ad-5 (10^9 pfu/animal). Animals were anesthetized with methoxyflurane, and the inoculating virus was delivered in a volume of 0.1 ml/100 gm body weight of the animal. On Day 3, animals were anesthetized with methoxyflurane, and hydrocortisone acetate (50 mg/ml) was instilled intranasally in a volume of 0.1 ml/100 gm body weight. The same treatment with hydrocortisone acetate was repeated once per day on Days 4 and 5. For purposes of comparison, control animals were infected concurrently on Day 0, but received no treatment on Days 3, 4, or 5. On Day 6, all animals were euthanized by carbon dioxide intoxication.
These included dexamethasone acetate (8 mg/ml) and triamcinolone acetonide (40 mg/ml). Of course, other corticosteroids or anti-inflammatory agents known to one of ordinary skill in the art could also be used.
(§3) Lungs were removed from the thorax and inflated through the trachea with neutral buffered formalin. Histologic sections were made by following standard procedures and stained with hematoxylin and eosin (H&E).
(§4) Topical administration was accomplished by anesthetizing the animals, holding them in a vertical posture, and instilling a solution containing corticosteroid onto the nares. A total volume of 0.1 ml/100 gm body weight was used. […] However, for human administration it is desirable to use a small particle aerosol delivered by a device that could be triggered by inhalation or used synchronously with the inhalation phase of ventilation for patients on a ventilator. Such a device could deliver aerosol from powder (spinhaler) or liquid. Since many patients, especially young infants and debilitated adults, may have diminished respiratory inhalation vigor, it is important to synchronize aerosol generation with inhalation. This could be accomplished by having inhalation trigger the aerosol delivery to the airway (nasal prongs, oral tube, etc.). The trigger mechanism could include negative pressure from inhalation, chest movement, or electrical triggering synchronized with diaphragmatic contraction. Electrical leads used to monitor respirations could be used to synchronize aerosol generation to be triggered at the first initiation of diaphragmatic contraction and respiration. Any form of aerosol generator is suitable if aerosol delivery is synchronized with inhalation and appropriate particle size is consistently generated.
(§5) Therapeutic efficacy is determined by comparing two parameters in treated versus control animals: (1) the percentage of alveoli on a single H&E-stained coronal section of lungs containing interstitial and/or intraalveolar pathology; and (2) the percentage of bronchioles, on the same section of lungs, affected by peribronchiolar lymphocytic infiltration.
Triamcinolone acetonide was selected as the prototypical corticosteroid for the combined anti-infective and anti-inflammatory studies. […] Therefore, the use of triamcinolone acetonide is merely by example of a general property of corticosteroids. Cotton rats were infected (Day 0) by intranasal instillation of PIV3 (10^6 pfu/animal) or RSV (10^5 pfu/animal). Animals were anesthetized with methoxyflurane, and the inoculating virus was delivered in a volume of 0.1 ml/100 gm body weight of the animal. […]

[2] = system: respiratory syncytial virus (RSV); format: in vivo; conditions: topical treatment Days 3, 4, 5
Protocol: (§6) Triamcinolone acetonide was selected as the prototypical corticosteroid for the combined anti-infective and anti-inflammatory studies. […] Cotton rats were infected (Day 0) by intranasal instillation of PIV3 (10^6 pfu/animal) or RSV (10^5 pfu/animal). Animals were anesthetized with methoxyflurane, and the inoculating virus was delivered in a volume of 0.1 ml/100 gm body weight of the animal. On Day 3, animals were anesthetized with methoxyflurane, and treated by intranasal instillation of anti-infective agent or a combination of anti-infective agent and corticosteroid, in a volume of 0.1 ml/100 gm body weight. The same treatment was repeated once per day on Days 4 and 5. For purposes of comparison, control animals were infected concurrently on Day 0, but received no treatment on Days 3, 4, or 5. On Day 6, the time of maximum pulmonary pathology in infected, untreated animals, all animals were euthanized by carbon dioxide intoxication.
(§7) Three experiments were performed using combined therapy: (1) anti-PIV3 antibody (100 mg/kg) and triamcinolone acetonide (4 mg/kg) were used to treat PIV3 infection; (2) anti-RSV antibody (25 mg/kg) and triamcinolone acetonide (4 mg/kg) were used to treat RSV infection; (3) ribavirin (20 mg/kg) and triamcinolone acetonide (4 mg/kg) were used to treat RSV infection. All agents were administered topically as described above in “Drug Testing”.
(§8) Cotton rats were challenged to induce infection in the following manner. The frozen virus (usually at a concentration of 10^5 pfu/ml) was thawed and then immediately instilled (0.05 ml/nostril) into anesthetized cotton rats. […] Lungs were removed from the animal, homogenized in tissue culture fluid, and cultured on HEp2 monolayers. The amount of virus was then quantified.
(§9) A single pool of purified human IgG, with known neutralizing antibody titer, was used with each virus throughout the experiments, to minimize experimental variability. […] Once determined, this dose was used in all subsequent experiments.
(§10) Titrations of virus in pulmonary tissues. Animals were sacrificed by carbon dioxide intoxication. After the thoracic wall was removed aseptically, the lungs were dissected from the heart, and homogenized in a TenBroeck tissue grinder in 10 parts (v:w) of Hanks, balanced salt solution, modified for stabilizing virus by the addition of 0.218 M sucrose, 4.4 mM glutamate, 3.8 mM KH2PO4 and 7.2 mM K2HPO4. […] After four days incubation at 37° C. under methylcellulose overlay, the cells were stained with crystal violet in glutaraldehyde solution, and the plaques counted. Viral titers were expressed as a geometric mean, plus or minus the standard error, for all animals (a minimum of four) at a given time point. […]

[3] = system: respiratory syncytial virus (RSV); format: in vivo; conditions: for % Bronchioles: group mean, Table 8, triamcinolone acetonide 4 mg/kg, ribavirin 20 mg/kg, topical Days 3, 4, 5, Day 6; for effect on pulmonary pathology (in words): topical treatment Days 3, 4, 5
Protocol: as §6, §7
Histopathology studies. After animals were sacrificed by carbon dioxide intoxication, the chest cavity was opened, and the heart and lungs removed intact. The trachea was cannulated with a blunt needle, the lungs inflated with 10% neutral buffered formalin to their normal volume, and the trachea tied with a suture. Coronal sections of the lungs were cut at a thickness of 4 microns, and stained with hematoxylin and eosin.
Standard published pathologic criteria for the identification and scoring of bronchiolitis and interstitial pneumonia were used (Porter, 1991 J. Virol. 65:103-111). Briefly, bronchiolitis is the accumulation of inflammatory cells, mostly or exclusively lymphocytes, in and around bronchioles. There may be accompanying damage to the epithelial cells, including loss of cilia or cell death. Interstitial pneumonia is thickening of the alveolar walls, usually accompanied by infiltration of inflammatory cells into the alveolar septae. Bronchiolitis was quantitated by examining each bronchiole within the lung section (generally 40-70 bronchioles) and scoring for the presence or absence of lymphocytic infiltration. The percentage of affected bronchioles was then calculated. Interstitial pneumonia was quantitated by estimating the percentage of affected alveolar tissue in the lung section. A minimum of four animals were examined for each time point. Arithmetic means of pathology scores were calculated, and differences between treatment groups evaluated by the Student t-test of summary data. In each experiment, uninfected animals served as sentinels to rule out the presence of adventitious agents.

[4] = system: parainfluenza virus type 3 (PIV3); format: in vivo; conditions: topical treatment Days 3, 4, 5
Protocol: as §6, §7, §8, §9, §10

adenovirus type 5 (Ad-5) = assay: Pulmonary pathology (histology) in Ad-5-infected cotton rats; format: in vivo
Description: as §1, §2, §3, §4, §5

[5] = group mean, Experiment 5, dexamethasone acetate 8 mg/ml or triamcinolone acetonide 40 mg/ml intranasal Days 3-5, Day 6
[6] = group mean, Table 6, triamcinolone acetonide 4 mg/kg, anti-PIV3 IgG 100 mg/kg, topical Days 3, 4, 5, Day 6
[7] = individual animals (Exps. 3, 4)
[8] = range over experiments, treated vs control
[9] = mean, Exps. 1, 2, 6 and 7 combined

With CC(=O)OCC(=O)[C@@]1(O)[C@H](C)C[C@H]2[C@@H]3CCC4=CC(=O)C=C[C@]4(C)[C@@]3(F)[C@@H](O)C[C@@]21C [Dexamethasone, dexamethasone acetate] the “reduction of alveolar inflammation compared to control values” ([1]; Experiment 5) was 28%, the “reduction of bronchiolar inflammation compared to control values” ([1]; Experiment 5) was 75% and the “% Alveoli” value [1, 5] was 50%. For the same compound, the “% Bronchioles” value [1, 5] was 21% and the “% Bronchioles” value ([1]; individual animals, Experiment 5) was 29% and 21% and 14%.
With NC(=O)c1ncn([C@@H]2O[C@H](CO)[C@@H](O)[C@H]2O)n1 [Ribavirin, 1-beta-D-ribofuranosyl-1,2,4,-triazole-3-carboxamide] the “effect on viral titers / viral shedding (in words)” value [2] was “neither effected a significant reduction in pulmonary RSV titers”, the “effect on viral titers / viral shedding (in words)” value ([2]; listed as ribavirin) was “did not reduce viral titers” and the “% Bronchioles” value [3] was 48 (N.S.) %. The “therapeutic effectiveness against RSV infection (in words)” value ([3]; ribavirin 20 mg/kg topical, cotton rat) was “minimally effective”, the “effect on pulmonary pathology (in words)” value [3] was “nor affected pulmonary pathology” and the “effect on pulmonary pathology (in words)” value ([3]; listed as ribavirin) was “no effect on pulmonary pathology”.
In the case of CC1(C)O[C@@H]2C[C@H]3[C@@H]4CCC5=CC(=O)C=C[C@]5(C)[C@@]4(F)[C@@H](O)C[C@]3(C)[C@]2(C(=O)CO)O1 [Triamcinolone, triamcinolone acetonide], the “effect on viral titers / viral shedding (in words)” value [4] is reported as “increased and prolonged viral shedding; also recorded: prolonged and increased viral shedding”, the “effect on viral titers / viral shedding (in words)” value [2] is reported as “prolonged and increased viral shedding” and the “reduction of alveolar inflammation compared to control values” ([1]; Experiment 5) is reported as 80%. For the same compound, the “reduction of bronchiolar inflammation compared to control values” ([1]; Experiment 5) was 89%, the “% Alveoli” value [1, 5] was 24% and 24 (p < 0.01) % and the “% Bronchioles” value [1, 5] was 9% and 9 (p < 0.001) %. For the same compound, the “% Alveoli” value [1, 6] was 10 (p < 0.05) % and 10%, the “% Bronchioles” value [1, 6] was 6 (p < 0.001) % and 6% and the “% Bronchioles” value [3] was 0 (p < 0.001) %. For the same compound, the “effect on pulmonary pathology (in words)” value [3] was “dramatically reduced; also recorded: reduced pulmonary pathology”.
CC(=O)OCC(=O)[C@@]1(O)CC[C@H]2[C@@H]3CCC4=CC(=O)CC[C@]4(C)[C@H]3[C@@H](O)C[C@@]21C [hydrocortisone acetate, Hydrocortisone acetate] was tested, and the “% Alveoli” value (adenovirus type 5 (Ad-5); [7]) was 10% (2×) and 5% and 9% and 50% and 40% (2×) and 20%, the “% Bronchioles” value (adenovirus type 5 (Ad-5); [7]) was 18% and 16% and 21% and 8% and 26% and 37% and 42% and 50% and the “net reduction in disease, alveolar inflammation” value (adenovirus type 5 (Ad-5); [8]) was 46-79%. The “net reduction in disease, bronchiolar inflammation” value (adenovirus type 5 (Ad-5); [8]) was 57-77%, the “exacerbated disease in treated animals” value (adenovirus type 5 (Ad-5); topical hydrocortisone acetate) was “no evidence of exacerbated disease” and the “% Bronchioles” value ([1]; group mean per experiment (Exps. 1, 2, 6, 7), hydrocortisone acetate 50 mg/ml, 0.1 ml/100 gm intranasal Days 3, 4, 5, histology Day 6) was 9% and 15%. The “% Alveoli” value [1, 9] was 24%, the “% Bronchioles” value [1, 9] was 15% and the “net reduction in disease, alveolar inflammation” value [1, 8] was 27-56%. The “net reduction in disease, bronchiolar inflammation” value [1, 8] was 77-85% and the “exacerbated disease in treated animals” value ([1]; topical hydrocortisone acetate) was “no evidence of exacerbated disease”.
